Data reported in patent publication US7101878B1 (Agouron Pharmaceuticals, Inc., priority 1998, dated 2006).
Read-outs that look alike come from different tables or passages of the source.

Biological target: T1, human GnRH receptor (Homo sapiens, UniProt P30968)
T1 construct: expressed in transfected cells; host or cells: HEK 293 (hGnRH-R/293, from Dr. Stuart Sealfon)
T1 sequence (P30968 1-328): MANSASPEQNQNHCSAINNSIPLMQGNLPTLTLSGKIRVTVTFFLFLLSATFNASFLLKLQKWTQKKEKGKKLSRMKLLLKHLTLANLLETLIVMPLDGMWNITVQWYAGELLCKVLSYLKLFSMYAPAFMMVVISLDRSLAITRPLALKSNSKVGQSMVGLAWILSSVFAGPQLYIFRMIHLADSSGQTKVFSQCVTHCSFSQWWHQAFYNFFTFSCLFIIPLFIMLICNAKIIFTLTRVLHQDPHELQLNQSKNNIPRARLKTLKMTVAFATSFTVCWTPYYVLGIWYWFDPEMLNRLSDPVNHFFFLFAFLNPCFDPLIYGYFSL
Test: Radioligand binding, 125I-GnRH-A displacement, membranes of HEK 293 cells with human GnRH receptor
Conditions: for remaining activity at 1 µM / remaining activity at 10 µM: substrate remaining, closer to zero = closer to 100% inhibition; for remaining activity at 1 µM: 1 uM compound, read-out: S%R 1 uM hGnRHR; for IC50: read-out: hGnRH IC50; for remaining activity at 10 µM: 10 uM compound, read-out: S%R 10 uM hGnRHR
How it was run: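 After filtration and PBS washes, bound radioactivity was counted by scintillation and IC50 derived. Identical conditions applied for non-human receptors.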

[1] = 1 uM, read-out: % Inhib. @ 1 uM hGnRH
[2] = 1 h, repeat of % Inhib. at 1 uM, read-out: Repeats @ 1 uM hGnRH

| SMILES | inhibition at 1 µM [1] | inhibition at 1 µM [2] | also measured |
| --- | --- | --- | --- |
| Cc1cc2c(cc1Cc1ccc(C(=O)NCc3cccc(Cl)c3Cl)o1)C(C)(C)CCC2(C)C [Compound 416] |  |  | remaining activity at 1 µM (1 h): 34% |
| Cc1cc2c(cc1Cc1ccc(C(=O)NC[C@@H]3CCCO3)o1)C(C)(C)CCC2(C)C [Compound 58] |  |  | IC50: 0.205 µM |
| Cc1cc2c(cc1Cc1ccc(C(=O)NC3CCN(Cc4ccccc4)CC3)o1)C(C)(C)CCC2(C)C | -12% | 14% |  |
| CCOC(=O)Cc1ccc(NC(=O)c2ccc(Cc3cc4c(cc3C)C(C)(C)CCC4(C)C)o2)cc1 [Compound 32] |  |  | IC50: 3.8 µM |
| Cc1cc2c(cc1Cc1ccc(C(=O)Nc3cccc([N+](=O)[O-])c3)o1)C(C)(C)CCC2(C)C [Compound 370] |  |  | remaining activity at 10 µM (1 h): 37% |
| Cc1cc2c(cc1Cc1ccc(C(=O)NCCC#N)o1)C(C)(C)CCC2(C)C [Compound 436] |  |  | remaining activity at 1 µM (1 h): 58% |
| Cc1cc2c(cc1Cc1ccc(C(=O)NC3CCCC(Nc4ccnc(NCC5CCCO5)n4)C3)o1)C(C)(C)CCC2(C)C (stereo not shown) [drawing 1045] | 17% | 25% |  |
| Cc1cc2c(cc1Cc1ccc(C(=O)Nc3nc(N(C)C)nc4nc[nH]c34)o1)C(C)(C)CCC2(C)C [drawing 1008] | -13% | -9% |  |
| Cc1cc2c(cc1Cc1ccc(C(=O)Nc3ccc4c(c3)OCO4)o1)C(C)(C)CCC2(C)C [Compound 367] |  |  | remaining activity at 10 µM (1 h): 15% |
| COc1ccc(CCN(C)C(=O)c2ccc(Cc3cc4c(cc3C)C(C)(C)CCC4(C)C)o2)cc1OC | 13% | 7% |  |
| Cc1cc2c(cc1Cc1ccc(C(=O)N3CCN(c4ccncc4)CC3)o1)C(C)(C)CCC2(C)C | -4% | 11% |  |
| Cc1cc2c(cc1Cc1ccc(C(=O)NCc3ccccc3Br)o1)C(C)(C)CCC2(C)C [drawing 1223] | 57% | 60% |  |
| COc1ccc(OC)c(Cc2ccc(C(=O)Nc3c(OC)cc(OC)cc3OC)o2)c1 [Compound 186] |  |  | IC50: 7.31 µM |
| COc1cc(C#N)c(NC(=O)c2ccc(Cc3cc4c(cc3C)C(C)(C)CCC4(C)C)o2)cc1OC [Compound 343] |  |  | remaining activity at 10 µM (1 h): 33% |
| Cc1cc2c(cc1Cc1ccc(C(=O)NCCc3ccc(S(N)(=O)=O)cc3)o1)C(C)(C)CCC2(C)C [drawing 989] | 38% | 41% |  |
| Cc1cc2c(cc1Cc1ccc(C(=O)Nc3nc(Cl)c4nc[nH]c4n3)o1)C(C)(C)CCC2(C)C [Compound 353] |  |  | remaining activity at 10 µM (1 h): -4% |
| Cc1cc2c(cc1Cc1ccc(C(=O)N(Cc3ccccc3)Cc3ccccc3)o1)C(C)(C)CCC2(C)C | -2% | 3% |  |
| Cc1cc2c(cc1Cc1ccc(C(=O)NCC(C)(c3ccccc3)c3ccccc3)o1)C(C)(C)CCC2(C)C | 16% | 22% |  |
| CSc1ccc(NC(=O)c2ccc(Cc3cc4c(cc3C)C(C)(C)CCC4(C)C)o2)cc1 [Compound 366] |  |  | remaining activity at 10 µM (1 h): 37% |
| Cc1cc2c(cc1Cc1ccc(C(=O)NCCN3CCCC3)o1)C(C)(C)CCC2(C)C [drawing 986] | -7% | 0% |  |
| Cc1cc2c(cc1Cc1ccc(C(=O)NC(CO)Cc3ccccc3)o1)C(C)(C)CCC2(C)C (stereo not shown) [Compound 420] |  |  | remaining activity at 1 µM (1 h): 28% |
| Cc1cc2c(cc1Cc1ccc(C(=O)NCCc3ccccc3Cl)o1)C(C)(C)CCC2(C)C [drawing 1104] | 55% | 63% |  |
| Cc1cc2c(cc1Cc1ccc(C(=O)NCCC3OCCO3)o1)C(C)(C)CCC2(C)C [Compound 133] |  |  | IC50: 0.49 µM |
| COc1cccc(OC)c1NC(=O)c1ccc(Cc2cc3c(cc2C)C(C)(C)CCC3(C)C)s1 [Compound 146] |  |  | IC50: > 10 µM |
| COc1ccc(CCNC(=O)c2ccc(Cc3cc4c(cc3C)C(C)(C)CCC4(C)C)o2)cc1 [Compound 433] |  |  | remaining activity at 1 µM (1 h): 54% |

| SMILES | inhibition at 1 µM [1] | inhibition at 1 µM [2] | also measured |
| --- | --- | --- | --- |
| COC(=O)c1ccc(NC(=O)c2ccc(Cc3cc4c(cc3C)C(C)(C)CCC4(C)C)o2)cc1OC [Compound 374] |  |  | remaining activity at 10 µM (1 h): 13% |
| Cc1cc2c(cc1Cc1ccc(C(=O)N3CCN(c4ccccc4)CC3)o1)C(C)(C)CCC2(C)C [drawing 1092] |  | 6% | % Inhib. @ 1 uM hGnRH (1 uM): −1% |
| COc1ccccc1NC(=O)c1ccc(Cc2cc3c(cc2C)C(C)(C)CCC3(C)C)o1 [Compound 160] |  |  | IC50: 0.39 µM |
| COc1cc(OC)c(NC(=O)c2ccc(Cc3cc4c(cc3C(C)C)C(C)(C)CCC4(C)C)o2)c(OC)c1 [Compound 171] |  |  | IC50: 1.14 µM |
| Cc1cc2c(cc1Cc1ccc(C(=O)NC3CC3)o1)C(C)(C)CCC2(C)C [Compound 431] |  |  | remaining activity at 1 µM (1 h): 47% |
| COc1cc(OC)c(Cc2ccc(C(=O)Nc3c(OC)cc(OC)cc3OC)o2)c(OC)c1 [Compound 219] |  |  | IC50: 0.875 µM |
| COc1ccc(NC(=O)c2ccc(Cc3cc4c(cc3C)C(C)(C)CCC4(C)C)o2)c(OC)c1 [Compound 332] |  |  | remaining activity at 10 µM (1 h): 1% |
| Cc1ccc(CNC(=O)c2ccc(Cc3cc4c(cc3C)C(C)(C)CCC4(C)C)o2)cc1 [drawing 1175] | 87% | 90% |  |
| COC(=O)c1cc(C)nc(NCc2cccc(CNC(=O)c3ccc(Cc4cc5c(cc4C)C(C)(C)CCC5(C)C)o3)c2)n1 [Compound 158] |  |  | IC50: 1.09 µM |
| Cc1cc2c(cc1Cc1ccc(C(=O)Nc3cccc(OC(F)(F)F)c3)o1)C(C)(C)CCC2(C)C [Compound 359] |  |  | remaining activity at 10 µM (1 h): 55% |
| Cc1cc2c(cc1Cc1ccc(C(=O)NCc3ccc(F)cc3F)o1)C(C)(C)CCC2(C)C [Compound 445] |  |  | remaining activity at 1 µM (1 h): 22% |
| Cc1cc2c(cc1Cc1ccc(C(=O)NCCCCCN3CCOCC3)o1)C(C)(C)CCC2(C)C | -14% | -5% |  |
| Cc1cc2c(cc1Cc1ccc(C(=O)N(CC(O)c3ccccc3)C3CCCCC3)o1)C(C)(C)CCC2(C)C (stereo not shown) | -12% | -9% |  |
| CNc1ccccc1NC(=O)c1ccc(Cc2cc3c(cc2C)C(C)(C)CCC3(C)C)o1 [Compound 350] |  |  | remaining activity at 10 µM (1 h): 10% |
| Cc1cc2c(cc1Cc1ccc(C(=O)NC(CO)Cc3ccccc3)o1)C(C)(C)CCC2(C)C (stereo not shown) [drawing 1137] |  |  | % Inhib. @ 1 uM hGnRH (1 uM): 17%; Repeats @ 1 uM hGnRH (repeat of % Inhib. at 1 uM): 20 |
| Cc1ccc(CNC(=O)c2ccc(Cc3cc4c(cc3C)C(C)(C)CCC4(C)C)o2)cc1C [drawing 1191] | 77% | 79% |  |
| Cc1cc2c(cc1Cc1ccc(C(=O)NC(C)c3ccc(O)cc3)o1)C(C)(C)CCC2(C)C (stereo not shown) | -10% | -9% |  |
| COC(=O)N1CCC(C)(C)c2cc(OC)cc(Cc3ccc(C(=O)Nc4c(OC)cc(OC)cc4OC)o3)c21 [Compound 187] |  |  | IC50: 9 µM |
| Cc1cc2c(cc1Cc1ccc(C(=O)NCCc3c(Cl)cccc3Cl)o1)C(C)(C)CCC2(C)C | -40% | 17% |  |
| Cc1cc2c(cc1Cc1ccc(C(=O)NC3COC(C)(C)O[C@H]3c3ccccc3)o1)C(C)(C)CCC2(C)C (stereo partly shown) | -6% | 0% |  |
| CC1=CC(NC(=O)c2ccc(Cc3cc4c(cc3C)C(C)(C)CCC4(C)C)o2)=NC1c1ccccc1 (stereo not shown) [Compound 329] |  |  | remaining activity at 10 µM (1 h): 31% |
| Cc1cc2c(cc1Cc1ccc(C(=O)NCCc3ccccc3)o1)C(C)(C)CCC2(C)C [drawing 1079] | 59% | 60% |  |
| Cc1cc2c(cc1Cc1ccc(C(=O)NCC(=O)Nc3ccc([N+](=O)[O-])cc3)o1)C(C)(C)CCC2(C)C [drawing 1022] | 83% | 86% |  |
| CCN(CCc1ccccn1)C(=O)c1ccc(Cc2cc3c(cc2C)C(C)(C)CCC3(C)C)o1 | 12% | 8% |  |

Second part, led by results:

| inhibition at 1 µM [1] | inhibition at 1 µM [2] | SMILES | also measured |
| --- | --- | --- | --- |
| 15% | 17% | Cc1cc2c(cc1Cc1ccc(C(=O)N(C)C(C)Cc3ccccc3)o1)C(C)(C)CCC2(C)C (stereo not shown) |  |
| 49% | 52% | Cc1cc2c(cc1Cc1ccc(C(=O)NCc3ccc(Br)cc3)o1)C(C)(C)CCC2(C)C [drawing 1234] |  |
| 82% | 85% | Cc1cc2c(cc1Cc1ccc(C(=O)NCc3cccs3)o1)C(C)(C)CCC2(C)C [drawing 1099] |  |
| 11% | 13% | Cc1cc2c(cc1Cc1ccc(C(=O)NC3CCCCC3Cc3ccnc(NCC4CCCO4)n3)o1)C(C)(C)CCC2(C)C (stereo not shown) |  |
| -3% | 8% | Cc1cc2c(cc1Cc1ccc(C(=O)NCCCN3CCCCC3)o1)C(C)(C)CCC2(C)C [drawing 1050] |  |
| -11% | -17% | Cc1cc2c(cc1Cc1ccc(C(=O)N3CCN(c4ccc(Cl)cc4)CC3)o1)C(C)(C)CCC2(C)C |  |
| -26% | 11% | Cc1cc2c(cc1Cc1ccc(C(=O)NCC(O)c3ccc(O)c(O)c3)o1)C(C)(C)CCC2(C)C (stereo not shown) |  |
| 30% | 44% | Cc1cc2c(cc1Cc1ccc(C(=O)NCCc3ccc([N+](=O)[O-])cc3)o1)C(C)(C)CCC2(C)C [drawing 1057] |  |
| 57% | 64% | Cc1cc2c(cc1Cc1ccc(C(=O)NCCc3ccc(N)cc3)o1)C(C)(C)CCC2(C)C [drawing 1017] |  |
| -12% | -6% | Cc1cc2c(cc1Cc1ccc(C(=O)N3CCN(c4ccc(O)cc4)CC3)o1)C(C)(C)CCC2(C)C |  |
| 42% | 53% | COc1ccc(CCNC(=O)c2ccc(Cc3cc4c(cc3C)C(C)(C)CCC4(C)C)o2)cc1 [drawing 1173] |  |
